From patent US20240391940A1, “FUSED RING-CONTAINING COMPOUND, APPLICATION THEREOF, AND COMPOSITION CONTAINING SAME” (GenEros Biopharma Ltd., priority 2020, published 2024)

Legend:
[1] = test system: STAT5 Y694 phosphorylation; assay: HTRF experiment: STAT5 Y694 phosphorylation in Hela cells; type: cell-based, Human; conditions: for Inhibition rate @10 μM: 10 μM compound, 2 h pretreatment, interferon stimulation 30 min
Experimental: A multifunctional microplate reader (TECAN; […] F PLEX); 96-well cell culture plates (Bioyong), HTRF 384-well low volume plates (Cisbio; Cat #66PL384025); Human interferon 0 (IFN-0) (GenScript; Cat #P01574), STAT5 phospho-Y694 kits (Cisbio; Cat #64AT5PEG).
Hela cells (American Type Culture Collection (ATCC), CCL-2) were cultured in a 96-well plate with DMEM containing 5% fetal bovine serum at a density of 3×10^4 cells/well. The cells were incubated overnight in a 37° C., 5% carbon dioxide humidified incubator. The next day, the original DMEM in the 96-well plate was blotted, and equal volumes of medium containing different concentrations of compounds (stock solutions of compounds prepared with dimethyl sulfoxide were diluted to desired concentrations in medium) were added for 2 h of pretreatment. The plate was left to stand in a 37° C. incubator. Human interferon 0 was then added to a final concentration of 10 nM for stimulation. The plate was gently shaken so the contents were well mixed, and the plate was then left to stand in a 37° C. incubator for 30 min.
The medium was removed, and the plate was washed once with an appropriate volume of PBS and then blotted dry. Then 1×lysis buffer was added at 40 μL/well, and the plate was left to stand at room temperature for 30 min (preparation of 1 mL of 1× lysis buffer: mixing well 740 μL of ddH2O with 250 μL of 4× lysis buffer and […]). After 30 min, the cells were repeatedly pipetted until the lysis buffer was not viscous (bubbles were avoided) so that sufficient lysis was achieved.
In an HTRF 384-well low volume plate, 4 μL of an antibody premix (containing two antibodies: Cryptate and d2: the two antibodies were each 20-fold diluted with detection buffer and were then mixed in equal volume to form the antibody premix) and 16 μL of the cell lysate were added to each well. The plate was sealed with a sealing membrane and then incubated overnight at room temperature in a dark place.
After the overnight incubation, signals at 665 nm and 620 nm were detected separately on a multifunctional microplate reader. The calculation formula for the STAT5 Y694 phosphorylation assay is: Ratio=[(signal 665 nm)/(signal 620 nm)]×10^4. A dimethyl sulfoxide-only treatment group was set as a negative control (RatioNegative), and an interferon 0 stimulation group without compound addition was set as a positive control (RatioPositive). The inhibition rates of different samples against STAT5 Y694 phosphorylation were normalized: inhibition rate=[1−(RatioExperiment−RatioNegative)/(RatioPositive−RatioNegative)]×100.

[2] = test system: female BALB/c mice; assay: Toxicity, multiple administrations for 14 days in mice; type: in vivo; parameters: Changes in body weight of the mice in the toxicity test (group mean) / Changes in body weight of the mice in the toxicity test: unit not given here
Experimental: • Part I: Single administration. A total of 6 mice were used. They were randomly divided into 2 groups: the vehicle control and GEN1-284s (1000 mg/kg), dosed once by oral gavage and observed for 6 days, and changes in body weight and activities were recorded. • Part II: Multiple administrations. This experiment used a total of 6 mice. They were divided into two groups of 3: a GEN1-284s-1000 mg/kg group and a GEN1-284s-300 mg/kg group, and were intragastrically given GEN1-284s for 14 consecutive days at 200 μL each. The state and survival of the mice were observed every day, and their body weights were recorded. Two mice died 2 h after GEN1-284s-1000 mg/kg administration. The dose was changed to 600 mg/kg, and the experiment was continued.
This experiment used a total of 6 mice. They were divided into two groups of 3: a GEN1-284s-1000 mg/kg group and a GEN1-284s-300 mg/kg group, and were intragastrically given GEN1-284s for 14 consecutive days at 200 μL each. The state and survival of the mice were observed every day, and their body weights were recorded. Two mice died 2 h after GEN1-284s-1000 mg/kg administration. The dose was changed to 600 mg/kg, and the experiment was continued.
Each mouse was intragastrically administered GEN1-284s for 14 consecutive days in a volume of 200 μL/20 g. The state and survival of the mice were observed every day, and their body weights were recorded. Two mice died 2 h after GEN1-284s-1000 mg/kg administration. The dose was changed to 600 mg/kg, and the experiment was continued.
Changes in body weight and survival of the mice were observed during 6 days after the single administration, and changes in body weight and the survival of the mice were observed during 14 consecutive days of high-dose GEN1-284s administration.

Row | IC50 [1] | SMILES | Inhibition rate @10 μM [1] | further results
1 |  | O=C(Cc1ccc2ncccc2c1Cl)N1CCC(n2c(=O)[nH]c3cccc(C(F)(F)F)c32)CC1 [GEN1-306, 1-(1-(2-(5-Chloroquinolin-6-yl)acetyl)piperidin-4-yl)-7-(trifluoromethyl)-1,3-dihydro-2H-benzo[d]imidazol-2-one] | 95.64% | 
2 |  | N#Cc1ccnc2ccc(CC(=O)N3CCC(n4c(=O)[nH]c5cccc(C(F)(F)F)c54)CC3)cc12 [GEN1-304, 6-(2-Oxo-2-(4-(2-oxo-7-(trifluoromethyl)-2,3-dihydro-1H-benzo[d]imidazol-1-yl)piperidin-1-yl)ethyl)quinoline-4-carbonitrile] | 40.76% | 
3 |  | O=C(Cc1ccc2nccnc2c1)N1CCC(n2c(=O)[nH]c3cccc(C(F)(F)F)c32)CC1 [GEN1-140, 1-(1-(2-(Quinoxalin-6-yl)acetyl)piperidin-4-yl)-7-(trifluoromethyl)-1,3-dihydro-2H-benzo[d]imidazol-2-one] | 53.79% | 
4 | 7.6 µM | Cc1ccc2cc(CC(=O)N3CCC(n4c(=O)[nH]c5cccc(C(F)(F)F)c54)CC3)ccc2n1 [GEN1-300] | 72.83% | 
5 | 8.8 µM | O=C(Cc1ccc2nccc(Cl)c2c1)N1CCC(n2c(=O)[nH]c3cccc(C(F)(F)F)c32)CC1 [GEN1-301, 1-(1-(2-(4-Chloroquinolin-6-yl)acetyl)piperidin-4-yl)-7-(trifluoromethyl)-1,3-dihydro-2H-benzo[d]imidazol-2-one] | 80.70% | 
6 |  | O=C(Cc1ccc2ncccc2c1)N1CCC(n2c(=O)n(COP(=O)([O-])[O-])c3cccc(C(F)(F)F)c32)CC1.[Na+].[Na+] [Compound 284s] |  | Changes in body weight of the mice in the toxicity test (group mean) ([2]; 300 mg/kg P.O daily, Day 1): 16.97; Changes in body weight of the mice in the toxicity test (group mean) ([2]; 300 mg/kg P.O daily, Day 2): 16.93; Changes in body weight of the mice in the toxicity test (group mean) ([2]; 300 mg/kg P.O daily, Day 3): 16.87; Changes in body weight of the mice in the toxicity test (group mean) ([2]; 300 mg/kg P.O daily, Day 4): 17.17; Changes in body weight of the mice in the toxicity test (group mean) ([2]; 300 mg/kg P.O daily, Day 5): 17.17; Changes in body weight of the mice in the toxicity test (group mean) ([2]; 300 mg/kg P.O daily, Day 6): 17.23; Changes in body weight of the mice in the toxicity test (group mean) ([2]; 300 mg/kg P.O daily, Day 8): 17.47; Changes in body weight of the mice in the toxicity test (group mean) ([2]; 300 mg/kg P.O daily, Day 9): 17.17; Changes in body weight of the mice in the toxicity test (group mean) ([2]; 300 mg/kg P.O daily, Day 10): 17.1; Changes in body weight of the mice in the toxicity test (group mean) ([2]; 300 mg/kg P.O daily, Day 11): 17.3; Changes in body weight of the mice in the toxicity test (group mean) ([2]; 300 mg/kg P.O daily, Day 12): 17.23; Changes in body weight of the mice in the toxicity test (group mean) ([2]; 300 mg/kg P.O daily, Day 13): 17.47; Changes in body weight of the mice in the toxicity test (group mean) ([2]; 300 mg/kg P.O daily, Day 14): 17.47; Changes in body weight of the mice in the toxicity test (group mean) ([2]; 600 mg/kg group (1000 mg/kg, changed to 600 mg/kg on day 2) P.O daily, Day 1): 17.37; Changes in body weight of the mice in the toxicity test ([2]; 600 mg/kg group (1000 mg/kg, changed to 600 mg/kg on day 2) P.O daily, Day 2): 16.9; Changes in body weight of the mice in the toxicity test ([2]; 600 mg/kg group (1000 mg/kg, changed to 600 mg/kg on day 2) P.O daily, Day 3): 17.3; Changes in body weight of the mice in the toxicity test ([2]; 600 mg/kg group (1000 mg/kg, changed to 600 mg/kg on day 2) P.O daily, Day 4): 17.3
7 |  | CN(C)c1ccc(CC(=O)N2CCC(n3c(=O)[nH]c4cccc(C(F)(F)F)c43)CC2)cc1 [GEN1-118, 1-(1-(2-(4-(Dimethylamino)phenyl)acetyl)piperidin-4-yl)-7-(trifluoromethyl)-1,3-dihydro-2H-benzo[d]imidazol-2-one] | 27.57% | 
8 |  | COc1ccc2cc(CC(=O)N3CCC(n4c(=O)[nH]c5cccc(C(F)(F)F)c54)CC3)ccc2n1 [GEN1-305] | 63.05% | 
9 |  | O=C(Cc1ccc2ncc(C(F)(F)F)cc2c1)N1CCC(n2c(=O)[nH]c3cccc(C(F)(F)F)c32)CC1 [GEN1-312] | 55.50% | 
10 |  | O=C(Cc1ccc2sccc2c1)N1CCC(n2c(=O)[nH]c3cccc(C(F)(F)F)c32)CC1 [GEN1-298, 1-(1-(2-(Benzo[b]thiophen-5-yl)acetyl)piperidin-4-yl)-7-(trifluoromethyl)-1,3-dihydro-2H-benzo[d]imidazol-2-one] | 51.98% | 
11 | 5.5 µM | Cc1cc(CC(=O)N2CCC(n3c(=O)[nH]c4cccc(C(F)(F)F)c43)CC2)cc2cccnc12 [GEN1-303, 1-(1-(2-(8-Methylquinolin-6-yl)acetyl)piperidin-4-yl)-7-(trifluoromethyl)-1,3-dihydro-2H-benzo[d]imidazol-2-one] | 91.91% | 
12 | 7 µM | O=C(Cc1ccc2nc(Cl)ccc2c1)N1CCC(n2c(=O)[nH]c3cccc(C(F)(F)F)c32)CC1 [GEN1-302, 1-(1-(2-(2-Chloroquinolin-6-yl)acetyl)piperidin-4-yl)-7-(trifluoromethyl)-1,3-dihydro-2H-benzo[d]imidazol-2-one] | 80.37% | 
13 |  | O=C(Cc1ccc2[nH]ccc2c1)N1CCC(n2c(=O)[nH]c3ccccc32)CC1 [GEN1-077, 3-[1-[2-(1H-Indol-5-yl)acetyl]-4-piperidinyl]-1H-benzimidazol-2-one] | 34.25% | 
14 |  | O=C(Cc1c[nH]c2ccccc12)N1CCC(n2c(=O)[nH]c3cccc(C(F)(F)F)c32)CC1 [GEN1-169, reference compound] | 13.47% | 

Row | SMILES | IC50 [1] | Inhibition rate @10 μM [1] | further results
15 | O=C(Cc1ccc2ncccc2c1)N1CCC(n2c(=O)n(COP(=O)(O)O)c3cccc(C(F)(F)F)c32)CC1 [GEN1-284, (2-Oxo-3-(1-(2-(quinolin-6-yl)acetyl)piperidin-4-yl)-4-(trifluoromethyl)-2,3-dihydro-1H-benzo[d]imidazol-1-yl)methyl dihydrogen phosphate] | 3.9 µM | 80.21% | 
